# According to patent US8895806B2, “Fucosyl transferase gene” (priority 1999, dated 2014):
# Like-named read-outs stand apart in the source and are kept apart here.
# Experiments:
# Format in all cases: biochemical, mung bean
# [1] = target: recombinant GlcNAc-α1,3-fucosyl transferase (Vigna radiata, UniProt Q9ST51); assay: Assay for GlcNAc-α1,3-fucosyl transferase activity (GnGn peptide and GDP-L-[U-14C]-fucose); details: for Rel. Activity: acceptor substrate, standard test conditions; for Km: acceptor or donor substrate, unit inferred, read-out: apparent Km-values
# [2] = substrate: C[C@@H]1O[C@H](OP(=O)(O)OP(=O)(O)OC[C@H]2O[C@@H](n3cnc4c(=O)[nH]c(N)nc43)[C@H](O)[C@@H]2O)[C@@H](O)[C@H](O)[C@@H]1O; assay: as above; details: other: acceptor or donor substrate, unit inferred; pH 7.4; 27.0 °C
# [3] = tested on: GlcNAc-α1,3-fucosyl transferase activity; assay: Enzyme activity of insect cells transfected with the α1,3-fucosyl transferase gene versus negative control
# Source text: The encoding region of the assumed GlcNAc-α1,3-fucosyl transferase including cytoplasmatic and transmembrane region was amplified with the forward primer 5′-[…]-3′ (SEQ ID NO: 16) and reverse primer 5′-[…]-3′ (SEQ ID NO: 17) by means of the Expand High Fidelity PCR System of Boehringer Mannheim. The PCR product was double-digested with PstI and BamHI and subcloned in alkaline phosphatase-treated baculovirus transfer vector pVL1393 which previously had been digested with PstI and BamHI. To ensure a homologous recombination, the transfer vector was co-transfected with Baculo Gold viral DNA (PharMingen, Sand Diego, Calif.) in Sf9 insect cells in IPL-41 Medium with lipofectin. After an incubation of 5 days at 27° C., various volumes of the supernatant with the recombinant virus were used for infecting the Sf21 insect cells. After an incubation of 4 days at 27° C. in IPL-41 Medium with 5% FCS, the […] cells were harvested and washed 2× with phosphate-buffered saline solution. The cells were resuspended in 25 mM Tris HCl buffer, pH 7.4, with 2% Triton X-100 and broken up by sonication on ice.
# The homogenate and the cell supernatant were assayed for GlcNAc-α1,3-fucosyl transferase. Blind samples were carried out with recombinant baculovirus which codes for the tobacco-GlcNAc-transferase I (Strasser et al., 1999, Glycobiology, in the process of printing). […]
# [4] = additive conc. 10 mM, recombinant transferase
molecule,measurement,setting,value
CC(=O)N[C@H]1C(O)O[C@H](CO)[C@@H](O[C@@H]2O[C@H](CO)[C@H](O)[C@H](O)[C@H]2O)[C@@H]1O (stereo partly shown) [Galβ-4GlcNAc],Rel. Activity,[1]; recombinant transferase,0%
O=C(O)CN(CCN(CC(=O)O)CC(=O)O)CC(=O)O [EDTA],Relative Activity (Acceptor: GnGn-peptide),[1]; [4],18%
[Cl-].[Cl-].[Zn+2] [ZnCl2],Relative Activity (Acceptor: GnGn-peptide),[1]; [4],0.6%
Galβ1-3GlcNAcβ1-3Galβ1-4Glc,Rel. Activity,[1]; recombinant transferase,0%
[Cl-].[Cl-].[Mg+2] [MgCl2],Relative Activity (Acceptor: GnGn-peptide),[1]; [4],52%
Galβ1-3GlcNAc,Rel. Activity,[1]; recombinant transferase,0%
[Cl][Cu][Cl] [CuCl2],Relative Activity (Acceptor: GnGn-peptide),[1]; [4],3%
GlcNAcβ1-2Manα1-3(GlcNAβ1-2Manα1-6)Manβ1-4GlcNAcβ1-4GlcNAcβ1-Asn [GnGn-peptide],Km,[1],190 µM
same,Rel. Activity,[1]; recombinant transferase,100%
[Cl][Cd][Cl] [CdCl2],Relative Activity (Acceptor: GnGn-peptide),"[1]; additive conc. 10 mM, […]",44%
[Cl][Ni][Cl] [NiCl2],Relative Activity (Acceptor: GnGn-peptide),"[1]; additive conc. 10 mM, […]",24%
[Cl][Mn][Cl] [MnCl2],Relative Activity (Acceptor: GnGn-peptide),"[1]; additive conc. 10 mM, […]",100%
same,effect of addition of bivalent cations on activity of the recombinant transferase,[1]; result in words,enhances the activity
GlcNAcβ1-2Manα1-3(GlcNAcβ1-2Manα1-6)Manβ1-4GlcNAcβ1-4(Fucα1-6)GlcNAcβ1-Asn [GnGnF^6-peptide],Km,[1],130 µM
same,Rel. Activity,[1]; recombinant transferase,87%
[Ca+2].[Cl-].[Cl-] [CaCl2],Relative Activity (Acceptor: GnGn-peptide),"[1]; additive conc. 10 mM, […]",82%
[Cl-].[Cl-].[Co+2] [CoCl2],Relative Activity (Acceptor: GnGn-peptide),[1],35%
GlcNAcβ1-2Manα1-3[Manα1-3(Manα1-6)Manα1-6]Manβ1-4GlcNAcβ1-4GlcNAcβ1-Asn [M5Gn-Asn],Km,[1],230 µM
same,Rel. Activity,[1]; recombinant transferase,71%
"recombinant GlcNAc-α1,3-fucosyl transferase (Vigna radiata var. radiata) (protein) MMGLLTNLRGSRTDGAQQDSLPVLAPGGNPKRKWSNLMPLVVALVVIAEIAFLGRLDMAKNAAMVDSLADFFYRSRAVVEGDDLGLGLVASDRNSESYSCEEWLEREDAVTYSRGFSKEPIFVSGADQEWKSCSVGCKFGFSGDRKPDAAFGLPQPSGTASILRSMESAEYYAENNIAMARRRGYNIVMTTSLSSDVPVGYFSWAEYDMMAPVQPKTEAALAAAFISNCGARNFRLQALEALEKSNIKIDSYGGCHRNRDGRVNKVEALKHYKFSLAFENSNEEDYVTEKFFQSLVAGTVPVVVGAPNIQDFAPSPGSILHIKEIEDVESVAKTMRYLAENPEAYNQSLRWKYEGPSDSFKALVDMAAVHSSCRLCIHLATVSREKEENNPSLKRRPCKCTRGPETVYHIYVRERGRFEMESIYLRSSNLTLNAVKAAVVLKFTSLNLVPVWKTERPEVIRGGSALKLYKIYPIGLTQRQALYTFSFKGDADFRSHLENNPCAKFEVIFV",Km,[2],110 µM
same,enzyme activity of the cotransfected cells and their supernatant relative to negative controls,"[3]; Sf21 insect cells, homogenate and supernatant, at best",≤ 30 ×
same,"increase in the GlcNAc-α1,3-fucosyl transferase coming from the recombinant baculoviruses","[3]; corrected for endogenous insect α1,6-fucosyl transferase activity",> 100 -fold
